Measurements from the NIST ThermoML archive (doi:10.1021/je500389t).
Numbers after ± are expanded uncertainties.

Experiments:
[1] = 101 kPa, Liquid; for viscosity: Capillary tube (Ostwald / Ubbelohde) method; for mass density: Pycnometric method
[2] = xn = mol fraction of the nth substance listed; details: 101 kPa, Liquid, Capillary tube (Ostwald / Ubbelohde) method, x2 = 0

viscosity ([1]; 293.15 K) [mPa·s] | mass density ([1]; 293.15 K) [kg/m3] | viscosity ([1]; 298.15 K) [mPa·s] | mass density ([1]; 298.15 K) [kg/m3] | viscosity ([1]; 303.15 K) [mPa·s] | mass density ([1]; 303.15 K) [kg/m3] | viscosity ([1]; 308.15 K) [mPa·s] | mass density ([1]; 308.15 K) [kg/m3] | viscosity ([1]; 313.15 K) [mPa·s] | mass density ([1]; 313.15 K) [kg/m3] | viscosity ([2]; 293.15 K) [mPa·s] | viscosity ([2]; 298.15 K) [mPa·s] | viscosity ([2]; 303.15 K) [mPa·s] | viscosity ([2]; 308.15 K) [mPa·s] | viscosity ([2]; 313.15 K) [mPa·s] | SMILES
1.09 ± 0.04 | 945.2 ± 2 | 0.998 ± 0.041 | 939.8 ± 2 | 0.914 ± 0.04 | 935 ± 2 | 0.834 ± 0.04 | 930.7 ± 2 | 0.785 ± 0.04 | 925.4 ± 2 | – | – | – | – | – | COCCOCCOC [2,5,8-trioxanonane]
1.01 ± 0.04 | – | 0.89 ± 0.04 | – | 0.801 ± 0.04 | – | 0.723 ± 0.04 | – | 0.656 ± 0.04 | – | – | – | – | – | – | O [water]
– | – | – | – | – | – | – | – | – | – | 1.01 ± 0.04 | 0.89 ± 0.04 | 0.801 ± 0.04 | 0.723 ± 0.04 | 0.656 ± 0.04 | O [water] + COCCOCCOC
